Our source for the IC50 values is ChEMBL document CHEMBL5506056, “Discovery of Novel Azaindoles as Potent and Selective PI3Kδ Inhibitors for Treatment of Multiple Sclerosis” (J Med Chem, 2024).

In assay [1] the target is Phosphatidylinositol 4,5-bisphosphate 3-kinase catalytic subunit gamma isoform (Homo sapiens, UniProt P48736). Put plainly: Inhibition of PI3Kgamma (unknown origin) using PIP2 as substrate incubated for 1 hr by ADP-Glo assay. A general note: ADP-Glo first removes unused ATP, then detects ADP through luciferase.
Sequence of Phosphatidylinositol 4,5-bisphosphate 3-kinase catalytic subunit gamma isoform (P48736 whole entry, canonical isoform): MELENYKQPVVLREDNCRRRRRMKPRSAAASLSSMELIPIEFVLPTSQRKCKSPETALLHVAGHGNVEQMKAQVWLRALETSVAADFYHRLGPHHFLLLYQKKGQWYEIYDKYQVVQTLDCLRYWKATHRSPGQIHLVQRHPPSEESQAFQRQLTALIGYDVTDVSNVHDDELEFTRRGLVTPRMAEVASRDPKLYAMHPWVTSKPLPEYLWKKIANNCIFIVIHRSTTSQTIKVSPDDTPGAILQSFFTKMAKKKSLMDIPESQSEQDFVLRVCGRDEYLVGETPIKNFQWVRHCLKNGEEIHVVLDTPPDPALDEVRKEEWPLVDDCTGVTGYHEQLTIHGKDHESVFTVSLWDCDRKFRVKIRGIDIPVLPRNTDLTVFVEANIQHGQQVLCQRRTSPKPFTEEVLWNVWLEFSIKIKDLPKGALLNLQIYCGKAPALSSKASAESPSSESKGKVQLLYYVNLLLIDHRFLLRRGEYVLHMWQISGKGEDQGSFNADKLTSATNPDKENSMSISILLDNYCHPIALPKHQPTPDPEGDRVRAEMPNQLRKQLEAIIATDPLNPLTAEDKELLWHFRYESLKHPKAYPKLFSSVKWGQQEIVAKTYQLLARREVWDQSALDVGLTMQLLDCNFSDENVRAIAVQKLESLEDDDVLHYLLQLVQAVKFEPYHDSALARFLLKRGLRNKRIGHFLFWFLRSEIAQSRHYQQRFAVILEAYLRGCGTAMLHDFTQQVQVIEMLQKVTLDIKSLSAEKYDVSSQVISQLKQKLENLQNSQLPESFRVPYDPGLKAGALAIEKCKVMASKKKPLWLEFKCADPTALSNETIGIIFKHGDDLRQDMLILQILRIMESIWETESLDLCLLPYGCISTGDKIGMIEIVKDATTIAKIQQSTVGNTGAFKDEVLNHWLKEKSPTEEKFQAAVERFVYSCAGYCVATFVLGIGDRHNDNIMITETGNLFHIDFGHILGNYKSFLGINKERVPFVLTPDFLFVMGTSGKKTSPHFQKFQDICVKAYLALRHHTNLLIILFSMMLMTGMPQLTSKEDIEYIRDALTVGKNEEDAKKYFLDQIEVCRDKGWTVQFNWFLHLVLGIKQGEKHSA
For assay [2], the target named is Phosphatidylinositol 4,5-bisphosphate 3-kinase catalytic subunit beta isoform (Homo sapiens, UniProt P42338). As to the kind of experiment: Inhibition of PI3Kbeta (unknown origin) using PIP2 as substrate incubated for 1 hr by ADP-Glo assay.
Sequence of Phosphatidylinositol 4,5-bisphosphate 3-kinase catalytic subunit beta isoform (P42338 whole entry, canonical isoform): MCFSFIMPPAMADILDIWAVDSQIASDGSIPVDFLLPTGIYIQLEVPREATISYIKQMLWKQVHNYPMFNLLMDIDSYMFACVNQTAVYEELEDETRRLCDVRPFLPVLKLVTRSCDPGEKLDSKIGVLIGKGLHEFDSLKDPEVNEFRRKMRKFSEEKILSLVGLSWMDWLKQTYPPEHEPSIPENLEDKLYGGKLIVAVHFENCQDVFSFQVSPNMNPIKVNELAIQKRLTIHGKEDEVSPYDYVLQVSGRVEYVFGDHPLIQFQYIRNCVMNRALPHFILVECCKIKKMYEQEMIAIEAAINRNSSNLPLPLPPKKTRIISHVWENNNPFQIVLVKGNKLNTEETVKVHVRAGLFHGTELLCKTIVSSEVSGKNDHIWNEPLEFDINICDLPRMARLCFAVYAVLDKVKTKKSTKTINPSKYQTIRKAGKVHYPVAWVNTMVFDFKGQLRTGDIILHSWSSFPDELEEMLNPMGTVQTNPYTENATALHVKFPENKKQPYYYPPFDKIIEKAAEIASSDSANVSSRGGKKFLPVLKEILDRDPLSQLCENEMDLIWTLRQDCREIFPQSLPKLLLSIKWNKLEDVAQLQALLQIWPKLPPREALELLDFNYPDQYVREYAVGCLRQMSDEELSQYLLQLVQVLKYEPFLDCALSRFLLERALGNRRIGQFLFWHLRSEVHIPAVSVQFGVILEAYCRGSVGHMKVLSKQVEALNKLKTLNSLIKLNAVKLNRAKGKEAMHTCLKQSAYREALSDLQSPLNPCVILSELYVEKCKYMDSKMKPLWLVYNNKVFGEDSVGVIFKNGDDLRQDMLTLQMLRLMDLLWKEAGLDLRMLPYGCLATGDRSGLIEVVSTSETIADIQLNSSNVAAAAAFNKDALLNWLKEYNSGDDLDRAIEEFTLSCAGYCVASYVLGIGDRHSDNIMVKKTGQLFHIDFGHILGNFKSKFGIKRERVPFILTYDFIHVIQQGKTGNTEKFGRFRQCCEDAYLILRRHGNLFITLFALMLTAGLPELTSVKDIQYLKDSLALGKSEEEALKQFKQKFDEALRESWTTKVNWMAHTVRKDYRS
In assay [3] the target is Phosphatidylinositol 4,5-bisphosphate 3-kinase catalytic subunit alpha isoform (Homo sapiens, UniProt P42336). Put plainly: Inhibition of PI3Kalpha (unknown origin) using PIP2 as substrate incubated for 1 hr by ADP-Glo assay.
Sequence of Phosphatidylinositol 4,5-bisphosphate 3-kinase catalytic subunit alpha isoform (P42336 whole entry, canonical isoform): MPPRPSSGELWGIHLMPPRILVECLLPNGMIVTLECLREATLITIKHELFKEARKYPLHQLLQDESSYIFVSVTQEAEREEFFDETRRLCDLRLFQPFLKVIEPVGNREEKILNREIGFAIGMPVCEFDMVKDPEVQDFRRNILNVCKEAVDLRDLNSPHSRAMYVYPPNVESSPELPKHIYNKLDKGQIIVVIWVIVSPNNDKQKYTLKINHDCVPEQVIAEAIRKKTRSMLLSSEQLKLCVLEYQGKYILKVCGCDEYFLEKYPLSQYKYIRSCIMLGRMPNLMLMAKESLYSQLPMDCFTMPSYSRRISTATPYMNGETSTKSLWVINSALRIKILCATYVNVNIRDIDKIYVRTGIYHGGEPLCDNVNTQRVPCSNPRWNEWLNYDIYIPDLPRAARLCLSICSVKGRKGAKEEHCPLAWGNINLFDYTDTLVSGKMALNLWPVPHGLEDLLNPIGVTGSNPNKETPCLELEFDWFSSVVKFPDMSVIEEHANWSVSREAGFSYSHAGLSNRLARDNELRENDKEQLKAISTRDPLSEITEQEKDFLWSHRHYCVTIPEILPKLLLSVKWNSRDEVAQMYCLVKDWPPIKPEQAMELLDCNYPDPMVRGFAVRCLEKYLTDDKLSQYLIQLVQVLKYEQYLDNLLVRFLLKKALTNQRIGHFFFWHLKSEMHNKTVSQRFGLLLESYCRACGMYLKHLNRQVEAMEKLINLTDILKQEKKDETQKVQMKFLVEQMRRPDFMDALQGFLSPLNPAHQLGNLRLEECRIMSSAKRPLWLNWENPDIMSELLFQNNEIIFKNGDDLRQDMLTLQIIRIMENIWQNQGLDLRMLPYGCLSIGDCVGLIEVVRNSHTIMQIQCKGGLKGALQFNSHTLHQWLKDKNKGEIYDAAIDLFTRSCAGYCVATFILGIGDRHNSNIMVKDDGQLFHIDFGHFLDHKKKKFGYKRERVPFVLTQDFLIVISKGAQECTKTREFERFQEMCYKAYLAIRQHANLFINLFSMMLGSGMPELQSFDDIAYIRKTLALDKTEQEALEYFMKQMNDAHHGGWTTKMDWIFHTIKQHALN
Assay [4] is described as follows: Inhibition of mouse CD3-positive T cell activation pre-stimulated with anti-CD3/anti-CD28 followed by compound treatment by flow cytometry.
Assay [5] in a line: Inhibition of mouse CD3-positive T cell proliferation pre-stimulated with anti-CD3/anti-CD28 followed by compound treatment by flow cytometry.

Each structure is given as a SMILES string.

As to `C[C@@H](Nc1nc(N)nc(N)c1C#N)c1cn(-c2cccnc2)c2cc(Cl)cnc12` (racemic), the IC50 (commonly the point on the concentration scale where inhibition reaches its midpoint) was more than 10 µM in assay [1], 2.36 µM in assay [2] and more than 10 µM in assay [3].

As for `CC[C@H](Nc1ncnc2[nH]cnc12)c1nc2cccc(F)c2c(=O)n1-c1ccccc1` [IDELALISIB], the IC50 in assay [4] is more than 10 µM; in assay [5], 8.97 µM.

Consider `C[C@H](Nc1nc(N)nc(N)c1C#N)c1cn(-c2cccnc2)c2cc(Cl)cnc12`, for which the values for the IC50 in assay [1], in assay [2] and in assay [3] were more than 10 µM, 1.66 µM and 7.03 µM, respectively.

As to `CC(Nc1nc(N)nc(N)c1C#N)c1cn(-c2cccnc2)c2cc(Cl)cnc12` (stereo unspecified), the IC50 in assay [1], in assay [2] and in assay [3] was more than 10 µM throughout.
